In publication PMC7259638, “Characterization of the intestinal absorption of morroniside from Cornus officinalis Sieb. et Zucc via a Caco-2 cell monolayer model” (PLoS ONE, 2020):
Where two headings read alike, the source gives them in different places.

Assays:
Format in all cases: in vitro ADME, human
[1] = Effects of influx/efflux transporter inhibitors and CO on morroniside transport in Caco-2 cell monolayers; settings: human; for efflux ratio at 180 min, 25 μM: read-out: Efflux ratio P
Procedure: (§1) An initial stock solution of morroniside in methanol was prepared. The stock solution was then diluted with HBSS (pH = 7.4) and the final concentration of methanol in HBSS remained at 0.5%. […] Caco-2 cells were seeded at a density of 5 × 10^4 cells/cm^2 in a 12-well plate. The transepithelial electrical resistance (TEER) value was measured with a Millipore ERS voltameter (Burlington, MA, USA) in order to evaluate and determine monolayer integrity. The monolayers were ready for experiments 19 to 22 days after seeding.
(§2) During incubation, the culture medium was refreshed every other day. The culture medium was discarded, and 500 μL of HBSS was added to each well and incubated for 20 min at 37 °C. Afterward, each well was rinsed two times with HBSS at 37 °C. Three concentrations of morroniside (5, 25 and 100 μM) were added to either the apical (AP, 0.5 mL) or basolateral side (BL, 1.5 mL), wheras the receiving chamber contained the corresponding volume of blank HBSS medium (pH = 7.4). Incubation was performed at 37 °C for 180 min, with shaking at 50 rpm. To assess drug transport from the AP to BL side, after incubation for 5, 15, 30, 45, 60, 90, 120 or 180 min, 50 μL of the solution from the BL or AP side was collected, and replaced with an equal volume of HBSS. To study the effect of pH on morroniside (5, 25 and 100 μM) transport, the experiments were performed in HBSS, which was adjusted to pH 6.0 or pH 7.4 on the AP side depending on the experiment, and to pH 7.4 on the BL side at 37 °C.
(§3) Efflux and influx transporters were investigated for their effects on the transport flux of morroniside. Several ATP-binding cassette transporter inhibitors, including one p-glycoprotein (P-gp) inhibitor (100μM verapamil); one multidrug resistance- related protein (MRP) inhibitor (100 μM, MK571), one multidrug resistance- related protein 3 (MRP3, the main BL MRP) inhibitor ([…]) and one multidrug resistance- related protein 2 (MRP2, the main AP MRP) inhibitor (200μM indomethacin); and one breast cancer resistance protein (BCRP) inhibitor (25μM apigenin) were used to determine the transporters involved in the efflux transport of morroniside. The inhibition of the influx transport of morroniside transport across the Caco-2 cell monolayer was investigated by the addition of 50 μM sodium vanadate and cimetidine to evaluate the selectivity of Na/K-ATPase. The pH and temperature conditions of this assay were 7.4 and 37 °C, respectively.
(§4) UPLC-MS/MS data acquisition was performed using Analyst 1.5.2 and MultiQuant 2.1.1 software (Applied Biosystems). All data are shown as the mean ± standard deviation, n = 3. The data were analyzed using SPSS 20.0. In the Caco-2 cell model, the rate of transport was obtained from the amount transported versus the time curve using linear regression. The permeability coefficient of each compound was calculated using the following equation: Papp = (dQ/dt)/(A·C0).
(§5) where, dQ/dt is the rate of drug transport, C0 is the initial concentration of the compound in the donor chamber and A represents the surface area of the cell monolayer. The efflux ratio P was determined by calculating the ratio of Papp in the secretory (BA) direction divided by that in the absorptive (AB) direction, according to the following equation: P=PappBA/PappAB

BCRP = assay: as above; settings: human, 25 μM morroniside
Procedure: as §1, §2, §3, §4, §5

Caco-2 cell monolayers = assay: as above; settings: for PappAB (mean): AP to BL; for PappBA (mean): BL to AP; for PappAB / PappBA: pH 7.4, 37 °C
Procedure: as §1, §2, §3, §4, §5

MRP2 = assay: as above; settings: human, 25 μM morroniside
Procedure: as §1, §2, §3, §4, §5

MRP3 = assay: as above; settings: human, 25 μM morroniside
Procedure: as §1, §2, §3, §4, §5

MRP = assay: as above; settings: human, Caco-2, pH 7.4, with MK571 100 μM, 25 μM morroniside
Procedure: as §1, §2, §3, §4, §5

[2] = system: Na+/K+ pump (Na/K-ATPase); assay: as above; settings: human, Caco-2, pH 7.4, with sodium vanadate 50 μM, with 50 μM sodium vanadate (Na+/K+ pump); read-out: P (efflux ratio PappBA/PappAB)
Procedure: as §1, §2, §3, §4, §5

OATs = assay: as above; settings: human, Caco-2, pH 7.4, with cimetidine 50 μM, with 50 μM cimetidine (OATs); read-out: P (efflux ratio PappBA/PappAB)
Procedure: as §1, §2, §3, §4, §5

P-gp = assay: as above; settings: human, Caco-2, pH 7.4, with verapamil 100 μM, 25 μM morroniside; with verapamil 100 μM (P-gp inhibitor)
Procedure: as §1, §2, §3, §4, §5

[3] = 25 μM morroniside, with verapamil 100 μM
[4] = after 0.63 mg/mL CO (containing 25 μM morroniside) was added
[5] = with 50 μM sodium vanadate (Na+/K+ pump)

## COC(=O)C1=CO[C@@H](O[C@@H]2O[C@H](CO)[C@@H](O)[C@H](O)[C@H]2O)[C@@H]2[C@H](C)O[C@@H](O)C[C@H]12 [morroniside, Morroniside]
[1]; Caco-2, pH 7.4, 25 μM morroniside, Control (no inhibitor)
  efflux ratio at 180 min, 25 μM: 1.61
[1]; Caco-2, pH 7.4, Control (no inhibitor), influx transporter experiment, read-out: P (efflux ratio PappBA/PappAB)
  efflux ratio at 180 min: 1.6
[1]; Caco-2, pH 7.4, morroniside given as CO 0.63 mg/mL (containing 25 μM morroniside)
  efflux ratio at 180 min, 25 μM: 0.49
[1]; Caco-2, Control (no inhibitor), influx transporter experiment, pH 7.4, 37 °C
  Papp B→A at 180 min: 3.06 ± 0.6 ×10⁻⁶ cm/s
BCRP; Caco-2, pH 7.4, with apigenin 25 μM, with apigenin 25 μM (BCRP inhibitor), read-out: Efflux ratio P
  efflux ratio at 180 min, 25 μM: 0.45
BCRP; Caco-2, pH 7.4, BL to AP, with apigenin 25 μM, read-out: PappBA (mean)
  Papp B→A at 180 min, 25 μM: 2.78 ×10⁻⁶ cm/s
Caco-2 cell monolayers; 25 μM morroniside, Control
  PappAB (mean): 1.9 ×10⁻⁶ cm/s
  PappBA (mean): 3.06 ×10⁻⁶ cm/s
Caco-2 cell monolayers; 25 μM morroniside, with apigenin 25 μM
  PappAB (mean): 6.12 ×10⁻⁶ cm/s
Caco-2 cell monolayers; [3]
  PappAB (mean): 1.84 ×10⁻⁶ cm/s
  PappBA (mean): 2.93 ×10⁻⁶ cm/s
Caco-2 cell monolayers; 25 μM morroniside, with benzbromarone 50 μM
  PappBA (mean): 3.04 ×10⁻⁶ cm/s
Caco-2 cell monolayers; 25 μM morroniside, after addition of apigenin (25 μM), p < 0.05
  change of PappAB vs control: increased significantly
Caco-2 cell monolayers; 25 μM morroniside, after addition of apigenin (25 μM), vs control
  decrease in the efflux ratio: 72.05%
Caco-2 cell monolayers; morroniside given as CO 0.63 mg/mL (containing 25 μM morroniside), in 1e-6 cm/s
  PappAB (mean): 4.284
Caco-2 cell monolayers; morroniside given as CO 0.63 mg/mL (containing 25 μM morroniside)
  PappBA (mean): 2.11 ×10⁻⁶ cm/s
Caco-2 cell monolayers; Control (no inhibitor), influx transporter experiment
  PappAB: 1.90±0.5 ×10^-6cm/s
Caco-2 cell monolayers; [4]
  change of PappAB vs control: increased significantly
  change of PappBA vs control: not significantly different
Caco-2 cell monolayers; after MK 571 was added
  change of PappAB vs control: increased
  change of PappBA vs control: no effect
Caco-2 cell monolayers; after indomethacin was added, p < 0.001
  change of AP to BL flux (PappAB) vs control: significant increase
Caco-2 cell monolayers; before and after addition of verapamil
  change of PappAB and PappBA vs control: did not change significantly
Caco-2 cell monolayers; cotreatment with 200 μM benzbromarone
  change of PappAB or PappBA vs control: did not alter
Caco-2 cell monolayers; from effect of apigenin (25 μM, BCRP inhibitor)
  BCRP substrate status: substrate of BCRP
Caco-2 cell monolayers; from effect of indomethacin (MRP2 inhibitor) on AP to BL flux
  MRP2 substrate status: substrate of MRP2
Caco-2 cell monolayers; from effect of verapamil (P-gp inhibitor)
  P-gp involvement in transport: might not be involved
Caco-2 cell monolayers; with 50 μM cimetidine
  change of morroniside transport vs control: did not significantly increase or decrease
Caco-2 cell monolayers; with 50 μM cimetidine (OATs)
  PappAB: 1.82±0.5 ×10^-6cm/s
  PappBA: 3.1±0.7 ×10^-6cm/s
Caco-2 cell monolayers; with 50 μM sodium vanadate
  change of morroniside transport vs control: did not significantly increase or decrease
Caco-2 cell monolayers; [5]
  PappAB: 1.89±0.4 ×10^-6cm/s
  PappBA: 3.11±0.7 ×10^-6cm/s
MRP2; Caco-2, pH 7.4, with indomethacin 200 μM, with indomethacin 200 μM (MRP2 inhibitor), read-out: Efflux ratio P
  efflux ratio at 180 min, 25 μM: 0.26
MRP2; Caco-2, pH 7.4, AP to BL, with indomethacin 200 μM, read-out: PappAB (mean)
  Papp A→B at 180 min, 25 μM: 12.8 ×10⁻⁶ cm/s
MRP2; Caco-2, pH 7.4, BL to AP, with indomethacin 200 μM, read-out: PappBA (mean)
  Papp B→A at 180 min, 25 μM: 3.3 ×10⁻⁶ cm/s
MRP3; Caco-2, pH 7.4, with benzbromarone 50 μM, with benzbromarone 50 μM (MRP3 inhibitor), read-out: Efflux ratio P
  efflux ratio at 180 min, 25 μM: 1.72
MRP3; Caco-2, pH 7.4, AP to BL, with benzbromarone 50 μM, read-out: PappAB (mean)
  Papp A→B at 180 min, 25 μM: 1.77 ×10⁻⁶ cm/s
MRP; with MK 571 100 μM (MRP inhibitor), read-out: Efflux ratio P
  efflux ratio at 180 min, 25 μM: 0.4
MRP; AP to BL, with MK 571 100 μM, read-out: PappAB (mean)
  Papp A→B at 180 min, 25 μM: 7.55 ×10⁻⁶ cm/s
MRP; BL to AP, with MK 571 100 μM, read-out: PappBA (mean)
  Papp B→A at 180 min, 25 μM: 3.01 ×10⁻⁶ cm/s
[2]
  efflux ratio at 180 min: 1.65
OATs
  efflux ratio at 180 min: 1.7
P-gp
  efflux ratio at 180 min, 25 μM: 1.59
